Reference: patent publication US7091311B2, “Peptides and compounds that bind to a receptor” (SmithKline Beecham Corporation, priority 1996, dated 2006)
Where a SMILES comes first, the peptide text is derived from it.

biological target: T1, TPO-R (Homo sapiens, UniProt P40238); test: competition binding assay: MBP-TPO156 binding to immobilized TPO-R (ELISA); details: Table 4, cyclized compounds; read-out: IC50
T1 construct: made in house
T1 sequence (P40238 26-491 limits assumed): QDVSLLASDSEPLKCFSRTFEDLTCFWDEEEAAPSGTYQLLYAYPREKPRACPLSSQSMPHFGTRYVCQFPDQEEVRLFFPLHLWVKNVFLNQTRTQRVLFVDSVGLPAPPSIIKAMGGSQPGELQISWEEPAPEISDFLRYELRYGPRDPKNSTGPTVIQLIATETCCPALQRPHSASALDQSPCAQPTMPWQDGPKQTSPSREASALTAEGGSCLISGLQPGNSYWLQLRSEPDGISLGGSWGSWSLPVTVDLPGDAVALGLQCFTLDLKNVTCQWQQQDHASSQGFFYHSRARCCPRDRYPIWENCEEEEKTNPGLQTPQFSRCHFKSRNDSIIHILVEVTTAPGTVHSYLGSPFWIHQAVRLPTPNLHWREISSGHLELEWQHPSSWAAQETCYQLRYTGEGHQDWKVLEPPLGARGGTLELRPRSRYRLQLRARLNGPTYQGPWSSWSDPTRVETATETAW
Description: A variety of methods can be used to evaluate IC50 values. For example, an equilibrium binding ELISA assay, using either MBP-TPO or lacI-peptide tracer, was used to determine whether the peptides inhibit the binding of TPO to the extracellular domain of the TPO receptor. Typically, the IC50 value were determined using the free peptide. The IC50value can be determined using the free peptide, which optionally can be C-terminally amidated, or can be prepared as an ester or other carboxy amide.
Binding affinities of chemically synthesized peptides for TPO-R were measured in a competition binding assay. The wells of a microtiter plate were coated with 1 mg streptavidin, blocked with PBS/1% BSA, followed by 50 ng of biotinylated anti-receptor immobilizing antibody (Ab179). The wells were then treated with a 1:10 dilution of soluble TPO-R harvest. Various concentrations of peptide or peptide mimetic were mixed with a constant amount of a truncated form of TPO consisting of residues 1–156 fused to the C-terminus of maltose binding protein (MBP-TPO156). The peptide MBP-TPO156 mixtures were added to the TPO-R coated wells, incubated for 2 hours at 4° C. and then washed with PBS. The amount of MBP-TPO156 that was bound at equilibrium was measured by adding a rabbit anti-sera directed against MBP, followed by alkaline phosphatase conjugated goat anti-rabbit IgG. The amount of alkaline phosphatase in each well was then determined using standard methods.
The assay is conducted over a range of peptide concentrations and the results are graphed such that the y axis represents the amount of bound MBP-TPO156 and the x axis represents the concentration of peptide or peptide mimetic.

IC50 [nM]	SMILES
≤ 500	CC[C@H](C)[C@@H]1NC(=O)[C@H](Cc2c[nH]c3ccccc23)NC(=O)[C@H](CCC(=O)O)NC(=O)[C@H](CCCNC(=N)N)NC(=O)[C@H](CC(C)C)NC(=O)[C@H]([C@@H](C)O)NC(=O)[C@@H]2CCCN2C(=O)CNC(=O)[C@H](CC(=O)O)NC(=O)[C@H](C)NC(=O)CSC[C@@H](C(N)=O)NC(=O)[C@H](Cc2ccccc2)NC(=O)[C@H](CO)NC1=O (HELM PEPTIDE1{[O=C(C[*:3])[*:2]].A.D.G.P.T.L.R.E.W.I.S.F.C.[am]}$PEPTIDE1,PEPTIDE1,1:R3-14:R3$$$V2.0)

same assay, conditions: Table 6; read-out: IC50

IC50 [nM]	SMILES
≤ 500	CC[C@H](C)[C@@H]1NC(=O)[C@H](Cc2c[nH]c3ccccc23)NC(=O)[C@H](CCC(=O)O)NC(=O)[C@H](CCCNC(=N)N)NC(=O)[C@H](CC(C)C)NC(=O)[C@H]([C@@H](C)O)NC(=O)[C@@H]2CCCN2C(=O)CNC(=O)[C@H](CC(=O)O)NC(=O)[C@H](C)NC(=O)CSC[C@@H](C(=O)NCC(N)=O)NC(=O)[C@H](Cc2ccccc2)NC(=O)[C@H](CO)NC1=O [C-term, Gly addition] (HELM PEPTIDE1{[O=C(C[*:3])[*:2]].A.D.G.P.T.L.R.E.W.I.S.F.C.G.[am]}$PEPTIDE1,PEPTIDE1,1:R3-14:R3$$$V2.0; C-terminus assumed)

same assay, conditions: Table 7, dimer compounds; read-out: IC50

SMILES	IC50 [nM]
CSCC[C@H](N)C(=O)N[C@H](C(=O)NCC(=O)N1CCC[C@H]1C(=O)N[C@H](C(=O)N[C@@H](CC(C)C)C(=O)N[C@@H](CCCNC(=N)N)C(=O)N[C@@H](CO)C(=O)NCC(=O)N[C@@H](CSSC[C@H](NC(=O)CNC(=O)[C@H](CO)NC(=O)[C@H](CCCNC(=N)N)NC(=O)[C@H](CC(C)C)NC(=O)[C@@H](NC(=O)[C@@H]1CCCN1C(=O)CNC(=O)[C@@H](NC(=O)[C@@H](N)CCSC)C(C)C)[C@@H](C)O)C(N)=O)C(N)=O)[C@@H](C)O)C(C)C (HELM PEPTIDE1{M.V.G.P.T.L.R.S.G.C.[am]}|PEPTIDE2{M.V.G.P.T.L.R.S.G.C.[am]}$PEPTIDE1,PEPTIDE2,10:R3-10:R3$$$V2.0)	200000
CC(C)C[C@H](NC(=O)[C@H](Cc1c[nH]c2ccccc12)NC(=O)[C@H](CCC(N)=O)NC(=O)[C@H](CCCNC(=N)N)NC(=O)[C@H](CC(C)C)NC(=O)[C@@H](NC(=O)[C@@H]1CCCN1C(=O)CNC(=O)[C@H](CSSC[C@H](NC(=O)[C@H](CCC(N)=O)NC(=O)[C@@H](NC(=O)[C@@H](N)CO)C(C)C)C(=O)NCC(=O)N1CCC[C@H]1C(=O)N[C@H](C(=O)N[C@@H](CC(C)C)C(=O)N[C@@H](CCCNC(=N)N)C(=O)N[C@@H](CCC(N)=O)C(=O)N[C@@H](Cc1c[nH]c2ccccc12)C(=O)N[C@@H](CC(C)C)C(=O)N[C@@H](C)C(=O)N[C@@H](C)C(=O)N[C@@H](CCCNC(=N)N)C(=O)N[C@@H](CC(N)=O)C(=O)N[C@@H](Cc1c[nH]cn1)C(=O)N[C@@H](CC(C)C)C(=O)N[C@@H](CO)C(N)=O)[C@@H](C)O)NC(=O)[C@H](CCC(N)=O)NC(=O)[C@@H](NC(=O)[C@@H](N)CO)C(C)C)[C@@H](C)O)C(=O)N[C@@H](C)C(=O)N[C@@H](C)C(=O)N[C@@H](CCCNC(=N)N)C(=O)N[C@@H](CC(N)=O)C(=O)N[C@@H](Cc1c[nH]cn1)C(=O)N[C@@H](CC(C)C)C(=O)N[C@@H](CO)C(N)=O (HELM PEPTIDE1{S.V.Q.C.G.P.T.L.R.Q.W.L.A.A.R.N.H.L.S.[am]}|PEPTIDE2{S.V.Q.C.G.P.T.L.R.Q.W.L.A.A.R.N.H.L.S.[am]}$PEPTIDE1,PEPTIDE2,4:R3-4:R3$$$V2.0)	≤ 500

Continued, values first:

IC50 [nM]	SMILES
≤ 500	CC[C@H](C)[C@H](NC(=O)[C@H](Cc1c[nH]c2ccccc12)NC(=O)[C@H](CCC(=O)O)NC(=O)[C@H](CCCNC(=N)N)NC(=O)[C@H](CC(C)C)NC(=O)[C@@H](NC(=O)[C@@H]1CCCN1C(=O)CNC(=O)[C@H](CC(=O)O)NC(=O)[C@H](C)NC(C)=O)[C@@H](C)O)C(=O)N[C@@H](CO)C(=O)N[C@@H](Cc1ccccc1)C(=O)N[C@@H](CSSC[C@H](NC(=O)[C@H](Cc1ccccc1)NC(=O)[C@H](CO)NC(=O)[C@@H](NC(=O)[C@H](Cc1c[nH]c2ccccc12)NC(=O)[C@H](CCC(=O)O)NC(=O)[C@H](CCCNC(=N)N)NC(=O)[C@H](CC(C)C)NC(=O)[C@@H](NC(=O)[C@@H]1CCCN1C(=O)CNC(=O)[C@H](CC(=O)O)NC(=O)[C@H](C)NC(C)=O)[C@@H](C)O)[C@@H](C)CC)C(N)=O)C(N)=O (HELM PEPTIDE1{[ac].A.D.G.P.T.L.R.E.W.I.S.F.C.[am]}|PEPTIDE2{[ac].A.D.G.P.T.L.R.E.W.I.S.F.C.[am]}$PEPTIDE1,PEPTIDE2,14:R3-14:R3$$$V2.0; C-terminus assumed)
≤ 500	CC[C@H](C)[C@H](NC(=O)[C@H](Cc1c[nH]c2ccccc12)NC(=O)[C@H](CCC(=O)O)NC(=O)[C@H](CCCNC(=N)N)NC(=O)[C@H](CC(C)C)NC(=O)[C@@H](NC(=O)[C@@H]1CCCN1C(=O)CNC(=O)[C@H](CC(=O)O)NC(C)=O)[C@@H](C)O)C(=O)N[C@@H](CO)C(=O)N[C@@H](Cc1ccccc1)C(=O)N[C@@H](CSSC[C@H](NC(=O)[C@H](Cc1ccccc1)NC(=O)[C@H](CO)NC(=O)[C@@H](NC(=O)[C@H](Cc1c[nH]c2ccccc12)NC(=O)[C@H](CCC(=O)O)NC(=O)[C@H](CCCNC(=N)N)NC(=O)[C@H](CC(C)C)NC(=O)[C@@H](NC(=O)[C@@H]1CCCN1C(=O)CNC(=O)[C@H](CC(=O)O)NC(C)=O)[C@@H](C)O)[C@@H](C)CC)C(N)=O)C(N)=O (HELM PEPTIDE1{[ac].D.G.P.T.L.R.E.W.I.S.F.C.[am]}|PEPTIDE2{[ac].D.G.P.T.L.R.E.W.I.S.F.C.[am]}$PEPTIDE1,PEPTIDE2,13:R3-13:R3$$$V2.0; C-terminus assumed)
≤ 500	CC[C@H](C)[C@H](NC(=O)[C@H](Cc1c[nH]c2ccccc12)NC(=O)[C@H](CCC(=O)O)NC(=O)[C@H](CCCNC(=N)N)NC(=O)[C@H](CC(C)C)NC(=O)[C@@H](NC(=O)[C@@H]1CCCN1C(=O)CNC(C)=O)[C@@H](C)O)C(=O)N[C@@H](CO)C(=O)N[C@@H](Cc1ccccc1)C(=O)N[C@@H](CSSC[C@H](NC(=O)[C@H](Cc1ccccc1)NC(=O)[C@H](CO)NC(=O)[C@@H](NC(=O)[C@H](Cc1c[nH]c2ccccc12)NC(=O)[C@H](CCC(=O)O)NC(=O)[C@H](CCCNC(=N)N)NC(=O)[C@H](CC(C)C)NC(=O)[C@@H](NC(=O)[C@@H]1CCCN1C(=O)CNC(C)=O)[C@@H](C)O)[C@@H](C)CC)C(N)=O)C(N)=O (HELM PEPTIDE1{[ac].G.P.T.L.R.E.W.I.S.F.C.[am]}|PEPTIDE2{[ac].G.P.T.L.R.E.W.I.S.F.C.[am]}$PEPTIDE1,PEPTIDE2,12:R3-12:R3$$$V2.0; C-terminus assumed)
≤ 500	CC[C@H](C)[C@H](NC(=O)[C@H](Cc1c[nH]c2ccccc12)NC(=O)[C@H](CCC(=O)O)NC(=O)[C@H](CCCNC(=N)N)NC(=O)[C@H](CC(C)C)NC(=O)[C@@H](NC(=O)[C@@H]1CCCN1C(C)=O)[C@@H](C)O)C(=O)N[C@@H](CO)C(=O)N[C@@H](Cc1ccccc1)C(=O)N[C@@H](CSSC[C@H](NC(=O)[C@H](Cc1ccccc1)NC(=O)[C@H](CO)NC(=O)[C@@H](NC(=O)[C@H](Cc1c[nH]c2ccccc12)NC(=O)[C@H](CCC(=O)O)NC(=O)[C@H](CCCNC(=N)N)NC(=O)[C@H](CC(C)C)NC(=O)[C@@H](NC(=O)[C@@H]1CCCN1C(C)=O)[C@@H](C)O)[C@@H](C)CC)C(N)=O)C(N)=O (HELM PEPTIDE1{[ac].P.T.L.R.E.W.I.S.F.C.[am]}|PEPTIDE2{[ac].P.T.L.R.E.W.I.S.F.C.[am]}$PEPTIDE1,PEPTIDE2,11:R3-11:R3$$$V2.0; C-terminus assumed)
200000	CC[C@H](C)[C@H](NC(=O)[C@H](Cc1c[nH]c2ccccc12)NC(=O)[C@H](CCC(=O)O)NC(=O)[C@H](CCCNC(=N)N)NC(=O)[C@H](CC(C)C)NC(=O)[C@@H](NC(C)=O)[C@@H](C)O)C(=O)N[C@@H](CO)C(=O)N[C@@H](Cc1ccccc1)C(=O)N[C@@H](CSSC[C@H](NC(=O)[C@H](Cc1ccccc1)NC(=O)[C@H](CO)NC(=O)[C@@H](NC(=O)[C@H](Cc1c[nH]c2ccccc12)NC(=O)[C@H](CCC(=O)O)NC(=O)[C@H](CCCNC(=N)N)NC(=O)[C@H](CC(C)C)NC(=O)[C@@H](NC(C)=O)[C@@H](C)O)[C@@H](C)CC)C(N)=O)C(N)=O (HELM PEPTIDE1{[ac].T.L.R.E.W.I.S.F.C.[am]}|PEPTIDE2{[ac].T.L.R.E.W.I.S.F.C.[am]}$PEPTIDE1,PEPTIDE2,10:R3-10:R3$$$V2.0; C-terminus assumed)
